# Laboratory results as given in PMC9234961 (Journal of Medicinal Chemistry, 2022).
# Columns and labels:
# kinases (468) [1] = target: kinases (468) (Homo sapiens, UniProt O15530); conditions: PDPK1; 1000 nM
# kinases (468) [2] = target: kinases (468) (Homo sapiens, UniProt O75116); conditions: kinase ROCK2 (Entrez ROCK2); compound concentration 1000 nM
# kinases (468) [3] = target: kinases (468) (Homo sapiens, UniProt P00533, L858R); conditions: EGFR(L858R); 1000 nM
# kinases (468) [4] = target: kinases (468) (Homo sapiens, UniProt P04049); conditions: RAF1; 1000 nM
# kinases (468) [5] = target: kinases (468) (Homo sapiens, UniProt P25098); conditions: GRK2 (ADRBK1); 1000 nM
# kinases (468) (Homo sapiens, UniProt P25098), sequence (P25098 whole entry): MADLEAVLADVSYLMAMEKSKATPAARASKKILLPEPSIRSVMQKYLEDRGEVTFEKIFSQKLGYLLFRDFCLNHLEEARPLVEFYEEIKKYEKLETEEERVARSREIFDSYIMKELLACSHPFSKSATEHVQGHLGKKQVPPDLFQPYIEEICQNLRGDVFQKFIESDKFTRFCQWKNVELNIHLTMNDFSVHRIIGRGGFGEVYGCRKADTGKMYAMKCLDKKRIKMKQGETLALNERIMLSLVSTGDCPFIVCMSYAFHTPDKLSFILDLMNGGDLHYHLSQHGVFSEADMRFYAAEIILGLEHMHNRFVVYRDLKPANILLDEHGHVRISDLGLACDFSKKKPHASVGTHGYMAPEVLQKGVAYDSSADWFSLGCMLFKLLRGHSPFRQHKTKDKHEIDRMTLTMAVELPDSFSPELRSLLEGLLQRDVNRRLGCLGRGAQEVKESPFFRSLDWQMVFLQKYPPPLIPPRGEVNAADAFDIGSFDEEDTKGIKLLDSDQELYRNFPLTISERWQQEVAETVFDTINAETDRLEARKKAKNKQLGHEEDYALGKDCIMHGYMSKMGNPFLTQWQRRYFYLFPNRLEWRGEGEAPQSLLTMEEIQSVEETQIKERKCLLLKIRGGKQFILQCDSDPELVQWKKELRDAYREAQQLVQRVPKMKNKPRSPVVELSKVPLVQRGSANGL
# kinases (468) [6] = target: kinases (468) (Homo sapiens, UniProt P41743); conditions: PRKCI; 1000 nM
# kinases (468) [7] = target: kinases (468) (Homo sapiens, UniProt P42345); conditions: MTOR; 1000 nM
# kinases (468) [8] = target: kinases (468) (Homo sapiens, UniProt P80192); conditions: MLK1 (MAP3K9); 1000 nM
# kinases (468) [9] = target: kinases (468) (Homo sapiens, UniProt Q15569); conditions: kinase TESK1 (Entrez TESK1); compound concentration 1000 nM
# kinases (468) [10] = target: kinases (468) (Homo sapiens, UniProt Q15746); conditions: MYLK; 1000 nM
# kinases (468) [11] = target: kinases (468) (Homo sapiens, UniProt Q7L7X3); conditions: kinase TAOK1 (Entrez TAOK1); compound concentration 1000 nM
# kinases (468) (Homo sapiens, UniProt Q7L7X3), sequence (Q7L7X3 whole entry): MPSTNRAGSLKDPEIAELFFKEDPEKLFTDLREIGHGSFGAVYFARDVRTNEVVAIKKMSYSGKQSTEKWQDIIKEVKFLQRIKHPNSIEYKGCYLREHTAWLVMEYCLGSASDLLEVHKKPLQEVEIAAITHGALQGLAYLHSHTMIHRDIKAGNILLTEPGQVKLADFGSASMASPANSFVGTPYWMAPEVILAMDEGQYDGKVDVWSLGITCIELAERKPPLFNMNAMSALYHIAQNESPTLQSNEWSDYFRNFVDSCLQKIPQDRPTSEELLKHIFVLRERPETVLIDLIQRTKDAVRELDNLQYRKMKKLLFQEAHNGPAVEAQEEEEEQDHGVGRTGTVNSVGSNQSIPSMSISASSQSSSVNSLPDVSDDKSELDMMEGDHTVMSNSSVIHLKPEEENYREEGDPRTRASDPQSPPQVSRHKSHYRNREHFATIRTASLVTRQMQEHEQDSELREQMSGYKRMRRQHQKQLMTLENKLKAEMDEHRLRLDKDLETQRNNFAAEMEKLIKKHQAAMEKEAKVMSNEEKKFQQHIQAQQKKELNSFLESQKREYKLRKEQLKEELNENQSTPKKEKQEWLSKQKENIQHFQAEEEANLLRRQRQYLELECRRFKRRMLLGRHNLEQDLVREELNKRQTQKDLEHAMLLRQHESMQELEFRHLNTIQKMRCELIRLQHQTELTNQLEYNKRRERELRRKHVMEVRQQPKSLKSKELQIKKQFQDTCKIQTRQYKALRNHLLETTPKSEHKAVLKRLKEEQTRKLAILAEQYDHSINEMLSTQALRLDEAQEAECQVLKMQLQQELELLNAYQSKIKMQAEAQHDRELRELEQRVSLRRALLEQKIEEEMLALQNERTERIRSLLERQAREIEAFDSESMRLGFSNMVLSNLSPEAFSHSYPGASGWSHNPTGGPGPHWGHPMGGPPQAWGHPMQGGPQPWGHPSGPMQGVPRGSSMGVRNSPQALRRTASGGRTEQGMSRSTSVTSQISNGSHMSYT
# kinases (468) [12] = target: kinases (468) (Homo sapiens, UniProt Q96D53); conditions: ADCK4; 1000 nM
# kinases (468) [13] = target: kinases (468) (Homo sapiens, UniProt Q96L34); conditions: MARK4; 1000 nM
# kinases (468) [14] = target: kinases (468) (Homo sapiens, UniProt Q9H4A3); conditions: kinase WNK1 (Entrez WNK1); compound concentration 1000 nM
# [15] = Microsomal clearance assay (MLM); format: in vitro ADME; conditions: female, CD1, pH 7.4; mouse liver microsomes, 1 μM compound
# Summary of the method: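 Compound (1 µM) was incubated at 37 °C with female CD1 mouse, female Sprague–Dawley rat or mixed-gender human liver microsomes (0.5 mg/mL protein) in 10 mmol/L phosphate, pH 7.4, with 3 mmol/L MgCl2. After 10 min preincubation, 1 mmol/L NADPH started the reaction. Samples taken up to 30 min were methanol-quenched and analysed by LC-MS.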
# [16] = Microsomal clearance assay (HLM); format: in vitro ADME; conditions: human liver microsomes, 1 μM compound
# Procedure: 6. Supplementary experimental: in vitro DMPK assays
# 6.1 Microsomal clearance assay
# Microsomal clearance was determined in female CD1 mice, female Sprague–Dawley rats, and mixed gender human liver microsomes obtained from BioIVT (Peterborough, U.K.) following incubation of 1 μM compound at 37 °C in 0.5 mg/mL microsomal protein, 3 mmol/L MgCl2, 1 mmol/L NADPH, 2.5 mmol/L and 10 mmol/L phosphate buffer (pH 7.4) (all purchased from Sigma-Aldrich, Gillingham, U.K). Reactions were started by addition of the cofactors following 10 min preincubation of microsomes with test compound and were terminated at −1, 0, 5, 10, 15, and 30 min with three volumes of ice-cold methanol containing internal standard. Samples were centrifuged at 2800g for 30 min at 4 °C and the supernatants analyzed.
# Control incubations were prepared as above with omission of cofactors. Compound measurements were […]
# separation with a 3 min gradient of 0.1% formic acid in methanol on a Kinetex C18, 50 × 2.1 mm 2.6 μm UPLC column (Phenomenex, Macclesfield, UK). […]
# in vitro = in vitro ADME; conditions: BALB/c; mouse plasma, rapid equilibrium dialysis; read-out: mouse (BALB\c) PPB (converted)
# ADORA2A = ADORA2A (Homo sapiens, UniProt P29274); experiment: SAFETYScan GPCR Calcium Flux, Agonist; format: cell-based
# ADORA2A, sequence (P29274 whole entry): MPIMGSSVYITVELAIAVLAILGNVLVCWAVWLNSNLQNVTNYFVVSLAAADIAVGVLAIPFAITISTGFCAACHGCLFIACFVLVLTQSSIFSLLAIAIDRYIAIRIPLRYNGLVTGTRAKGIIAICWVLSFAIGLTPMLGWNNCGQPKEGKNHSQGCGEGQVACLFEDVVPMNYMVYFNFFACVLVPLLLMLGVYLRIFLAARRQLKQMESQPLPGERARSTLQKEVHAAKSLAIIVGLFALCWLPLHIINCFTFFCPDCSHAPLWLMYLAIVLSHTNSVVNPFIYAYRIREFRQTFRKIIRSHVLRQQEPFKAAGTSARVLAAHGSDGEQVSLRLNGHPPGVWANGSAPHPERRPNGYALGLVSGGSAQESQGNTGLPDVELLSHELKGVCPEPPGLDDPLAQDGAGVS
# Excerpt: (§1) Supplement jm1c02175_si_002.xlsx, sheet "SAFETYScan" | column: RC50 (uM); Max Response
# AVPR1A = AVPR1A (Homo sapiens, UniProt P37288); experiment: SAFETYScan GPCR Calcium Flux, Agonist; format: cell-based
# AVPR1A, sequence (P37288 whole entry): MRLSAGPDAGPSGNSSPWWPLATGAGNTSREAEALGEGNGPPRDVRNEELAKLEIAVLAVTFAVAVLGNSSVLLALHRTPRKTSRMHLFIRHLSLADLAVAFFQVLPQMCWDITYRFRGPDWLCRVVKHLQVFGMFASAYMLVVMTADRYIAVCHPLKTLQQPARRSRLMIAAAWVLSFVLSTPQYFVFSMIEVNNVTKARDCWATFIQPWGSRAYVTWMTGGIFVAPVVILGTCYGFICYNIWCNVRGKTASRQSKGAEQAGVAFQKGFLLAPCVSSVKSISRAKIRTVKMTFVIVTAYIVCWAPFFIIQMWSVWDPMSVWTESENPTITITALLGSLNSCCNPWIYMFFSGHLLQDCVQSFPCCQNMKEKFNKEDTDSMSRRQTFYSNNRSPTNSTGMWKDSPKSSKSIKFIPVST
# Excerpt: as §1
# CHRM1 = target: T1, CHRM1 (Homo sapiens, UniProt P11229); experiment: SAFETYScan GPCR Calcium Flux, Agonist; format: cell-based
# T1 sequence (P11229 1-460): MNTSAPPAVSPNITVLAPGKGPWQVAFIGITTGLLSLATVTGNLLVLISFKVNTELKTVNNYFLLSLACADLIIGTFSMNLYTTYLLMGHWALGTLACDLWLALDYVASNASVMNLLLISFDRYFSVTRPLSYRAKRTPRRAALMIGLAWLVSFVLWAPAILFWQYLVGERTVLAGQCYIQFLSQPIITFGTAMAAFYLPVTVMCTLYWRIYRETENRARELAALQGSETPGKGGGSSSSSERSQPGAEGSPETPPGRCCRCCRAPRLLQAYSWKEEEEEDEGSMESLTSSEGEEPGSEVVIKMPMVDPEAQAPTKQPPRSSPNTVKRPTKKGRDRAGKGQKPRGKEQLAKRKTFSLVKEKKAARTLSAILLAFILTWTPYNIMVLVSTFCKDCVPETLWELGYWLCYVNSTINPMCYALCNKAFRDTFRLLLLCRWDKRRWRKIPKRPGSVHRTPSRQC
# Excerpt: as §1
# HRH1 = HRH1 (Homo sapiens, UniProt P35367); experiment: SAFETYScan GPCR Calcium Flux, Agonist; format: cell-based
# HRH1, sequence (P35367 whole entry): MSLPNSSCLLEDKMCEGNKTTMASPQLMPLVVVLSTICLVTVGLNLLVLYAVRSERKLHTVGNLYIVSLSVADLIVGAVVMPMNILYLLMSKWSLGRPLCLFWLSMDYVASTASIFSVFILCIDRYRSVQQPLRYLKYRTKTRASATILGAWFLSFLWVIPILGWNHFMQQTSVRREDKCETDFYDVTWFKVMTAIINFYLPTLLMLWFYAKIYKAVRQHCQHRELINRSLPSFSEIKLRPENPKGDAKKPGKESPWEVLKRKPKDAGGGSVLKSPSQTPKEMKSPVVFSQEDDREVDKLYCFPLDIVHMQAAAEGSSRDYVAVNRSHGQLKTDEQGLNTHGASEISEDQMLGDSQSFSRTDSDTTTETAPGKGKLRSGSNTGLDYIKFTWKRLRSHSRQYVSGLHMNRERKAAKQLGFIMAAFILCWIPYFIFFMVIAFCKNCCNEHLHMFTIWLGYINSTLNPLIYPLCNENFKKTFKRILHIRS
# Excerpt: as §1
# HTR2A = HTR2A (Homo sapiens, UniProt P28223); experiment: SAFETYScan GPCR Calcium Flux, Agonist; format: cell-based
# HTR2A, sequence (P28223 whole entry): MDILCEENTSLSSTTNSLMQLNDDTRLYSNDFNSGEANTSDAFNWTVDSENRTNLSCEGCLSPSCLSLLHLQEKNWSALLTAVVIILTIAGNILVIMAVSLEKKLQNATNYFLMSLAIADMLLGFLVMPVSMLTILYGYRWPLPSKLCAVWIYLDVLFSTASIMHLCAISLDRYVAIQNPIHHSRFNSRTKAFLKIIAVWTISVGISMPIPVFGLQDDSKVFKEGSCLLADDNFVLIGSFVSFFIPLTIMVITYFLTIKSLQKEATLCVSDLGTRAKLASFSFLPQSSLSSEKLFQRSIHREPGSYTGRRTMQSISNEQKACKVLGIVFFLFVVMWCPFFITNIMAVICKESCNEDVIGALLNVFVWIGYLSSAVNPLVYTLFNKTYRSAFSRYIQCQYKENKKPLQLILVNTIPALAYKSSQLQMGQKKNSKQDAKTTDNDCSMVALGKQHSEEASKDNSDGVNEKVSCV
# Excerpt: as §1
# HTR2B = target: T2, HTR2B (Homo sapiens, UniProt P41595); experiment: SAFETYScan GPCR Calcium Flux, Agonist; format: cell-based
# T2 construct: expressed in transfected cells
# T2 sequence (P41595 whole entry): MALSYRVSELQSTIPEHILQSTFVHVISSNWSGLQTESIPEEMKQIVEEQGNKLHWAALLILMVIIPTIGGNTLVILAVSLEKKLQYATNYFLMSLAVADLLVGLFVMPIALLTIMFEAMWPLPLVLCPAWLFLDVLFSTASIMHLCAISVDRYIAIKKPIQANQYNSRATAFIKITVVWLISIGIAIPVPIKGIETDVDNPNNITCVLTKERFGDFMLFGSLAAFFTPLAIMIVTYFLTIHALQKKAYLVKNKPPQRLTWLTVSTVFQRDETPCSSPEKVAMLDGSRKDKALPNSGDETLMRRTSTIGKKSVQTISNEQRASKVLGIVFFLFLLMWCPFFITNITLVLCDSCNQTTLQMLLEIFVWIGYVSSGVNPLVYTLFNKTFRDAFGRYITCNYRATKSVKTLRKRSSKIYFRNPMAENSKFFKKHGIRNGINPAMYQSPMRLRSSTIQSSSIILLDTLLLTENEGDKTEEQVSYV
# Excerpt: as §1
# Karpas 422 = experiment: Cell proliferation assay (14 days), Karpas 422
# Procedure: Cells were seeded in 96-well culture plates at a density of 2500 cells/well in RPMI-1640 medium (Sigma-
# Aldrich) supplemented with 10% FBS (Gibco). Compounds were initially dispensed into 96-well U-bottom
# plates using an Echo 550 acoustic dispenser (Labcyte Inc.), then diluted in RPMI-1640 medium and
# transferred onto the cells. Cells were treated with 8 compound concentrations in duplicate, ranging from
# with compound for 14 days, with medium changes at days 3, 7 and 10 carried out as follows: fresh 96-well
# cell culture plates were prepared containing 100 µl medium plus compound at the assay concentrations
# (white plates were used on day 10 to optimise luminescence measurement). Assay plates containing cells
# were vortexed to mix and cell density in one control well was counted using a Coulter Z2 cell counter
# (Beckman Coulter). The volume of medium containing 2500 cells in the control well was calculated and this volume of cells was transferred from every well of the assay plates to the corresponding well of the fresh plates containing compound. After 14 days, CellTiter Glo reagent (Promega) was added to the medium in each well of the assay plate at a ratio of 1:2, mixed on a plate shaker, then incubated at room temperature for 10 minutes. Luminescence was measured using an Envision plate reader (Perkin Elmer) and the relative luminescence at each compound concentration, compared to DMSO alone, was calculated. GI50 were determined using a 4-parameter curve fit in Dotmatics (Bishops Stortford, UK).
# kinases (468) (Homo sapiens, UniProt O15530), sequence (O15530 whole entry): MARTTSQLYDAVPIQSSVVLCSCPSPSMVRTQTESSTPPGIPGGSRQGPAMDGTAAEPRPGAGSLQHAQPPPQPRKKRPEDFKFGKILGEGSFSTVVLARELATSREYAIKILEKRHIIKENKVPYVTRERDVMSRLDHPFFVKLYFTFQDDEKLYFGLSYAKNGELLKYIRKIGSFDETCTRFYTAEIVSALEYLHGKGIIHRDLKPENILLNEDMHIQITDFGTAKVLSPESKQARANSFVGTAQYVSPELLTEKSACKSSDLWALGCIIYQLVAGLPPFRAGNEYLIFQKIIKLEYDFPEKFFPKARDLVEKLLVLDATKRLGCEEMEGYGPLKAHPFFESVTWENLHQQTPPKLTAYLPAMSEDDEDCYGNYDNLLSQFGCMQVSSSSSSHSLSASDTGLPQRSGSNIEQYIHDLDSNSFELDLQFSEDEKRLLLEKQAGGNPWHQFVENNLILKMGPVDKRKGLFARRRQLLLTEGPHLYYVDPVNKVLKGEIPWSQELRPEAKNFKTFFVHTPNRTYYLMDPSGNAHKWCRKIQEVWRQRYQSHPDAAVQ
smiles,measurement,setting,value
C[C@H]1C[C@@H](O)CN(c2ncc(Cl)c(Nc3ccc4c(c3)c3c(c(=O)n4C)OCC(F)(F)[C@H](C4CC4)N3)n2)C1 [CCT373566_9A],Percent Control,kinases (468) [1],100%
same,Percent Control,kinases (468) [2],94%
same,Percent Control,kinases (468) [3],100%
same,Percent Control,kinases (468) [4],92%
same,Percent Control,kinases (468) [5],41%
same,Percent Control,kinases (468) [6],88%
same,Percent Control,kinases (468) [7],87%
same,Percent Control,kinases (468) [8],100%
same,Percent Control,kinases (468) [9],100%
same,Percent Control,kinases (468) [10],91%
same,Percent Control,kinases (468) [11],99%
same,Percent Control,kinases (468) [12],93%
same,Percent Control,kinases (468) [13],100%
same,Percent Control,kinases (468) [14],100%
"C[C@H]1C[C@@H](O)CN(c2ncc(Cl)c(Nc3ccc4c(c3)c3c(c(=O)n4C)OCC(F)(F)[C@H](C4CC4)N3)n2)C1 [12a CCT373566, (S)-10-((5-Chloro-2-((3R,5S)-3-hydroxy-5-methylpiperidin-1-yl)pyrimidin-4-yl)amino)-2-cyclopropyl-3,3-difluoro-7-methyl-1,2,3,4-tetrahydro-[1,4]oxazepino[2,3-c]quinolin-6(7H)-one]","microsomal CLint at 0.5 h, 1 µM",[15],116 µL/min/mg
same,"microsomal CLint at 0.5 h, 1 µM","[16]; both sexes, pH 7.4",8 µL/min/mg
same,CLint (HLM),[16],low clearance
same,fraction unbound,in vitro,0.0012
same,Emax,ADORA2A; read-out: Max Response,0%
same,EC50,ADORA2A; read-out: RC50 (EC50),> 10 µM
same,Emax,AVPR1A; read-out: Max Response,4.09%
same,EC50,AVPR1A; read-out: RC50 (EC50),> 10 µM
same,Emax,CHRM1; read-out: Max Response,3.12%
same,EC50,CHRM1; read-out: RC50 (EC50),> 10 µM
same,Emax,HRH1; read-out: Max Response,1.78%
same,EC50,HRH1; read-out: RC50 (EC50),> 10 µM
same,Emax,HTR2A; read-out: Max Response,0%
same,EC50,HTR2A; read-out: RC50 (EC50),> 10 µM
same,Emax,HTR2B; read-out: Max Response,1.98%
same,EC50,HTR2B; read-out: RC50 (EC50),> 10 µM
same,Karpas 422 GI50,Karpas 422; 14-day proliferation assay,Very potent growth inhibition
same,GI50,"Karpas 422; Homo sapiens, KARPAS-422, 336 h, read-out: Karpas 422 GI50",0.0014 µM
